# Test results reported in paper PMC8955853, “New Sorbicillinoids with Tea Pathogenic Fungus Inhibitory Effect from Marine-Derived Fungus Hypocrea jecorina H8” (Marine Drugs, 2022).
# Entries after “also recorded” stand apart in the source; their conditions may differ. Read-outs that look alike come from different tables or passages of the source.
# What was measured:
# [1] = tested on: Pestalotiopsis theae; test: Antifungal activity assay, growth inhibition of tea pathogenic fungus; type: cell-based; settings: for IC50: Pseudopestalotiopsis theae, read-out: ED50, antifungal activity against Pestalotiopsis theae; for fold stronger anti-tea pathogenic fungus effect than hexaconazole: compared to positive control hexaconazole (24.25 ± 1.57 µg/mL)
# Experimental: Compounds 1 to 11 were evaluated for antifungal activities by a paper disc inhibition assay.
# Initial evaluations of the antifungal activity of the purified compounds were conducted against tea pathogenic fungus P. theae in six-well microplates as described by Xia Yan with certain modifications. The final concentrations of each compound in the wells were 80, 40, 20, 10, 5, and 2.5 µg/mL (two-fold dilutions). DMSO and hexaconazole were used as a blank control and positive control, respectively. The ED50 (μg/mL) values were calculated statistically using Probit analyses.
# [2] = tested on: zebrafish embryos; test: Zebrafish embryotoxicity and developmental toxicity assay; type: in vivo; settings: for effects on mortality rate and malformation of zebrafish: 0.625 μM for 24 h and 10 μM for 72 h (Figure 4c); for change of effect on zebrafish embryo mortality when treatment prolonged to 72 h: 72 h versus 24 h (Figure 4b)
# Experimental: Figure 4 Embryotoxicity and developmental toxicity assay; 15 zebrafish embryos per condition were exposed to compounds at the concentrations of 10, 5, 2.5, 1.25, and 0.625 μM, and 0.1% DMSO was used as blank control. (a) The mortality rate of 24 embryo treated with compounds; (b) The mortality rate of 72 embryo treated with compounds; (c) The impact on the malformation of zebrafish treated with compounds) The statistics of 24 and 72 h mortality rate; © Morphology of 24 h embryo or 72 h zebrafish larvae treated with compounds or control.
# Wild-type (AB strain) zebra fish (Danio rerio) were used in this test. Compounds 5, 6, 8, 9, and 10 were dissolved in DMSO (10 mM) and stored at −20 °C. Toxicity evaluations were analyzed regarding the anti-proliferative effects on embryos according to the literature. In brief, 15 zebrafish embryos per condition were exposed to compounds at the concentrations of 10, 5, 2.5, 1.25, and 0.625 μM, and 0.1% DMSO was used as the vehicle control. A Leica stereomicroscope was used to observe the embryos every 24 h.
# [3] = tested at 80, 40, 20, 10, 5 and 2.5 µg/mL, Probit analysis
Compound,"IC50 [1, 3]",change of effect on zebrafish embryo mortality when treatment prolonged to 72 h [2],other results
"CCC12C(=O)OC(C)(C(=O)C(C)=C1CC(C)=O)C2CC(=O)C=CC=CCO (stereo not drawn) [Compound 1, trichodermolide C]",> 100 µg/mL,–,–
"CC=CC=CC(O)CC1C2(C)OC(=O)C1(CC)C(CC(C)O)=C(C)C2=O (stereo not drawn) [Compound 2, trichodermolide D]",> 100 µg/mL,–,–
"CC=CC=CC(O)=C1C(=O)C2(C)C3C(=C(O)CC(O)C=CC)C(=O)C4(C)C1C1(C)OC4(O)C3(C)OC12O (stereo not drawn) [Compound 3, 7,7′,9′-hydroxy-trichodimerol]",–,–,IC50 [1]: > 100 µg/mL
"Cc1cc(C(=O)CC(O)C(O)C(C)O)c(O)c(C)c1O (stereo not drawn) [Compound 4, 1-(2,4-dihydroxy-3,5-dimethylphenyl)-3,4,5-trihydroxyhexan-1-one]",> 100 µg/mL,–,–
"CC=CC=CC(O)=C1CC(C)(O)C2(O)OC3(C)C(O)=C(C)C(=O)C(=C(O)C=CC=CC)C3C2(C)C1=O (stereo not drawn) [Compound 5, isobisvertinol A]",9.13 ± 1.25 µg/mL,did not change greatly,effects on mortality rate and malformation of zebrafish [2]: greater effects than other compounds; fold stronger anti-tea pathogenic fungus effect than hexaconazole [1]: ~3 fold
"C/C=C/CCC(=O)c1cc(C)c(O)c(C)c1O [Compound 6, 2′,3′-dihydrosorbicillin]",2.04 ± 1.24 µg/mL,did not change greatly,–
"C/C=C/C=C/C(=O)c1cc(C)c(O)cc1O [Compound 7, 6-demethylsorbicillin]",> 100 µg/mL,–,–
"C/C=C/C=C/C(=O)c1cc(C)c(O)c(C)c1O [Compound 8, sorbicillin]",18.2 ± 1.29 µg/mL,–,"zebrafish embryos killed ([2]; 0.625 μM for 24 h): more than 50%; effects on mortality rate and malformation of zebrafish [2]: greater effects than other compounds; mortality rate of zebrafish embryo ([2]; 0.625 μM, 72 h (Figure 4b)): ~60%; zebrafish embryos killed ([2]; 10 μM for 72 h): more than 50%"
"Cc1cc(C(=O)/C=C/C=C/CO)c(O)c(C)c1O [Compound 9, (2E,4E)-1-(2,4-dihydroxy-3,5-dimethylphenyl)-6-hydroxyhexa-2,4-dien-1-one]",1.83 ± 1.37 µg/mL,did not change greatly,fold stronger anti-tea pathogenic fungus effect than hexaconazole [1]: 13 fold
"C/C=C/C=C/C(O)=C1\C[C@](C)(O)[C@]2(O)O[C@]3(C)C(O)=C(C)C(=O)/C(=C(O)/C=C/C=C/C)[C@@H]3[C@]2(C)C1=O [Compound 11, bisvertinol]",> 100 µg/mL,–,–
"CCCCC(O)(Cn1cncn1)c1ccc(Cl)cc1Cl (stereo not drawn) [hexaconazole, reference compound]",24.2 ± 1.57 µg/mL,–,–
trichodimerol [Compound 10],–,did not change greatly,"toxicity to zebrafish eggs, embryos or larvae (overall, in words) ([2]; 10, 5, 2.5, 1.25 and 0.625 μM, observed every 24 h): low toxicity; also recorded: much lower toxicity; ED50, antifungal activity against Pestalotiopsis theae [1, 3]: 4.68 ± 1.44 µg/mL"
